Experimental data published in ChEMBL document CHEMBL1201862, “PubChem BioAssay data set” (2004).
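Results reflect a 48-hour exposure of cells in 96-well plates to compound at five concentrations. GI50 is the concentration that inhibits growth by half.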 Activity calls are given as the source filed them. Rule as the data show it: active = GI50 up to about 1.1 µM and inactive = higher.

Experiments:
Experiment in all cases: NCI-60 cell line screen, 48 h
SNB-19 = test system: SNB-19
SN12C = test system: SN12C
IGROV-1 = test system: IGROV-1
SK-MEL-28 = test system: SK-MEL-28
SK-OV-3 = test system: SK-OV-3
K562 = test system: K562
SF-295 = test system: SF-295
U-251 = test system: U-251
A549 = test system: A549
CAKI-1 = test system: CAKI-1
OVCAR-8 = test system: OVCAR-8
NCI-H23 = test system: NCI-H23
HCT-116 = test system: HCT-116
LOX IMVI = test system: LOX IMVI
HL-60 = test system: HL-60
UACC-62 = test system: UACC-62
HT-29 = test system: HT-29
RXF 393 = test system: RXF 393
TK-10 = test system: TK-10
Malme-3M = test system: Malme-3M

Measured: GI50

Cc1ccc(N2C(=O)C3CSCN3C2=O)cc1 (centres undefined)
inactive: SNB-19 > 100 µM | SN12C > 100 µM | IGROV-1 > 100 µM | SK-MEL-28 15.8 µM | SK-OV-3 > 100 µM | K562 > 100 µM | SF-295 > 100 µM | U-251 > 100 µM | A549 > 100 µM | CAKI-1 > 100 µM | OVCAR-8 > 100 µM | NCI-H23 > 100 µM | HCT-116 2.46 µM | LOX IMVI > 100 µM | HL-60 > 100 µM | UACC-62 > 100 µM | HT-29 > 100 µM

COC(=O)C(C(=O)C(=O)Nc1nnc(S)[nH]1)c1csc(-n2nc(-c3ccccc3)cc2-c2ccccc2)n1 (centres undefined)
inactive: SNB-19 > 100 µM | SN12C > 100 µM | IGROV-1 > 100 µM | SK-OV-3 > 100 µM | K562 > 100 µM | U-251 > 100 µM | RXF 393 > 100 µM | A549 > 100 µM | CAKI-1 > 100 µM | OVCAR-8 > 100 µM | NCI-H23 > 100 µM | HCT-116 > 100 µM | LOX IMVI > 100 µM | HL-60 > 100 µM | TK-10 > 100 µM | UACC-62 > 100 µM | Malme-3M > 100 µM | HT-29 27.5 µM

N#Cc1c(OCCF)c2ccccc2n2c1nc1ccccc12
inactive: SNB-19 29.2 µM | IGROV-1 23.8 µM | SK-MEL-28 > 100 µM | SK-OV-3 27 µM | K562 > 100 µM | SF-295 23.9 µM | U-251 37.6 µM | RXF 393 17.3 µM | A549 31.6 µM | CAKI-1 52.2 µM | OVCAR-8 42.3 µM | NCI-H23 69 µM | HCT-116 11.2 µM | LOX IMVI 31.3 µM | HL-60 97.7 µM | TK-10 31.1 µM | UACC-62 48.6 µM | HT-29 64.3 µM

CCOC(=O)C(C)NC(=O)NC12CC3CC(CC(F)(C3)C1)C2 (centres undefined)
inactive: SNB-19 > 100 µM | IGROV-1 > 100 µM | SK-MEL-28 > 100 µM | SK-OV-3 > 100 µM | K562 > 100 µM | U-251 > 100 µM | RXF 393 27.5 µM | A549 > 100 µM | OVCAR-8 > 100 µM | NCI-H23 > 100 µM | HCT-116 > 100 µM | LOX IMVI > 100 µM | HL-60 61.5 µM | TK-10 > 100 µM | UACC-62 > 100 µM | Malme-3M 63 µM | HT-29 > 100 µM

COc1ccc(/C(Cl)=C(\C=O)c2ccc(F)cc2)cc1OC
inactive: SNB-19 37.4 µM | SN12C 15.9 µM | IGROV-1 31.9 µM | SK-MEL-28 24 µM | SK-OV-3 39.4 µM | K562 16.8 µM | SF-295 21.6 µM | U-251 15.6 µM | CAKI-1 19.1 µM | OVCAR-8 21.5 µM | NCI-H23 16.6 µM | HCT-116 15.4 µM | LOX IMVI 14.2 µM | HL-60 7.16 µM | TK-10 34.3 µM | UACC-62 14.5 µM | Malme-3M 30.5 µM | HT-29 15.4 µM

C1=N\CCOCC/N=C\c2ccc(cc2)OCc2cccc(n2)COc2ccc/1cc2
inactive: SNB-19 > 100 µM | SN12C > 100 µM | IGROV-1 > 100 µM | SK-MEL-28 > 100 µM | SK-OV-3 > 100 µM | K562 > 100 µM | SF-295 98.2 µM | U-251 > 100 µM | RXF 393 > 100 µM | A549 > 100 µM | OVCAR-8 > 100 µM | NCI-H23 > 100 µM | HCT-116 > 100 µM | HL-60 > 100 µM | TK-10 > 100 µM | UACC-62 > 100 µM | Malme-3M > 100 µM | HT-29 > 100 µM

NC(=O)Cn1c(=O)[nH]c(=O)c2[nH]cnc21
inactive: SNB-19 > 100 µM | SN12C > 100 µM | IGROV-1 > 100 µM | SK-MEL-28 > 100 µM | SK-OV-3 > 100 µM | K562 > 100 µM | U-251 > 100 µM | RXF 393 > 100 µM | A549 > 100 µM | OVCAR-8 > 100 µM | NCI-H23 > 100 µM | HCT-116 > 100 µM | LOX IMVI > 100 µM | HL-60 > 100 µM | TK-10 > 100 µM | UACC-62 > 100 µM | Malme-3M > 100 µM | HT-29 > 100 µM
